Experimental data as given in PMC4778863, “A Four-Point Screening Method for Assessing Molecular Mechanism of Action (MMOA) Identifies Tideglusib as a Time-Dependent Inhibitor of Trypanosoma brucei GSK3β” (PLoS Neglected Tropical Diseases, 2016).
Read-outs that look alike come from different tables or passages of the source.

Tests used:
[1] = molecular target: T1, TbGSK3β (Trypanosoma brucei brucei, UniProt Q388M1); assay: biochemical; format: biochemical; conditions: for Ratio Preinc/no preinc: % inhibition at 30 min preincubation / % inhibition at 0 min preincubation at 10 μM ATP; for ATP competition following preincubation / ATP competition without preincubation: 10 μM versus 100 μM ATP; for ATP competition following preincubation: 30 min preincubation; for time dependence: effect of 30 min preincubation on TbGSK3β activity: four point MMOA assay, 10 μM and 100 μM ATP
T1 construct: Full-length TbGSK3β (Gene DB ID Tb927.10.13780); 6X His (C); made in house; host or cells: BL21 (DE3) E. coli
T1 sequence (Q388M1 1-352): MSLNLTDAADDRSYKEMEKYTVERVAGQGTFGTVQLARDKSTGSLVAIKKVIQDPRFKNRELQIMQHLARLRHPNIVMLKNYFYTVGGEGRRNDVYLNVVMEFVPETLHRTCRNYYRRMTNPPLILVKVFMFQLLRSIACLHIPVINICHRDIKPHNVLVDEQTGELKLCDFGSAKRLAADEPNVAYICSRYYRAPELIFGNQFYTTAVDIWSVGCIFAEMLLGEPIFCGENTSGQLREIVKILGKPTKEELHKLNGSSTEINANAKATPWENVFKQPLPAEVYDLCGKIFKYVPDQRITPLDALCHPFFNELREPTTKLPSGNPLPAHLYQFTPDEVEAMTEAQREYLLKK
Procedure: TbGSK3β activity was measured by following the ADP formation associated with the phosphorylation of GSM peptide and detected with ADP-Glo at 23°C. The enzyme reaction was conducted in a volume of 20 μL in a buffer containing 20 mM NaCl, 15 mM HEPES pH 7.4, 1 mM EGTA, 10 mM MgCl2, 0.02% Tween. These assays contained GSM at 10μM (approximating Km) or 80 μM (approximating Vmax). ATP was added at 10 μM and 100 μM to approximate Km and Vmax, respectively.
All reactions were incubated for 5 minutes in microcentrifuge tubes, and reactions were terminated at 80°C for 4 min. Of 20 μL reactions, 17.5 μL were transferred into 384 well-plates. Promega ADP-Glo procedures were carried out and phosphorylation measured by Luminoskan Ascent (Thermo Labsystems, Waltham MA). For pre-incubation experiments, TbGSK3β was preincubated at room temperature with inhibitor, GSM and buffer for 30 min. Inhibitors were added in DMSO to a final concentration of DMSO in the reactions of <5%. The kinase reaction was then started by adding ATP. For non-preincubation reactions, the kinase reactions were started by adding TbGSK3β to a mixture containing inhibitor, ATP, GSM and buffer. DMSO was added to all control reactions.
IC50 for inhibition TbGSK3β was determined as a function of preincubation time (Fig 3). Preincubated reactions were preincubated with inhibitor, TbGSK3β, GSM peptide, and buffer at room temperature; after 30 minutes reactions were initiated with the addition of ATP. Reactions with 0 min preincubation were initiated with the addition of TbGSK3β. Reactions were run for 5 min at room temperature, and stopped at 80°C. ADP product formation was measured by ADP-Glo kit.
Preincubated reactions were preincubated with inhibitor, TbGSK3β, GSM peptide, and buffer at room temperature; after 30 minutes reactions were initiated with the addition of ATP. Reactions with 0 min preincubation were initiated with the addition of TbGSK3β. Reactions were run for 5 min at room temperature, and stopped heat at 80°C, followed by ice bath, and ADP product formation was measured by ADP-Glo kit. All concentrations of tideglusib and controls with and without TbGSK3β were kept at 1% DMSO. Black = 30 minute preincubation Grey = 0 minute preincubation.
Time dependent inhibition was evaluated by preincubation of TbGSK3β with 60 nM tideglusib and 6 nM GW-8510 with 10μM and 100μM ATP. […] (B). […] All reactions preincubated or not preincubated with TbGSK3β for 30 min at room temperature. Experiments run with 10μM GSM peptide, 10μM ATP, and buffer. Minute preincubation (30 min) was preincubated with inhibitor, TbGSK3β, GSM peptide, and buffer. ATP was mixed to initiate reaction. No preincubation contained inhibitor, GSM peptide, ATP, and buffer. The reaction was initiated with TbGSK3β. Reactions were run at room temperature for 5 min and stopped at 80°C. ADP formed was measured by ADP-Glo kit. Values are mean +/- standard error. N = 3 for each experiment and experiments were run in duplicates. Control reactions contained DMSO and background was determined using a zero time incubation and subtracted from all reactions. Black = 30 min preincubation Grey = No preincubation.

[2] = molecular target: T1, TbGSK3β; assay: Irreversibility: TbGSK3β activity following 100-fold dilution; format: biochemical; conditions: 100 nM inhibitor preincubated 30 min with 50 nM TbGSK3β, diluted 100 fold into 100 μM ATP, 80 μM GSM; up to 2 hr
Procedure: Tideglusib and GW8510 were evaluated for irreversibility by measuring the TbGSK3β activity following a 100-fold dilution with reaction buffer. In these experiments tideglusib and GW8510 [100 nM] were preincubated with 50 nM TbGSK3β for 30 min at which time the reaction was diluted 100 fold into a solution containing 100 μM ATP and 80 μM GSM. The activity was then measured for up to two hours (Fig 6). […] The final concentration of tideglusib and GW8510 following dilution was 1 nM.
Tideglusib [100 nM, GW8510 [100 nM] and DMSO were preincubated with 50 nM TbGSK3 for 30 min. After a 100 fold dilution activity was measured and compared to DMSO containing reaction. Data expressed percent inhibition of DMSO activity. Data represent the average of two separate experiments for GW8510 and three for tideglusib. All points in each experiment were run in duplicate.

[3] = tested on: T. brucei brucei strain 427; conditions: cited from earlier work
[4] = tested on: Bloodstream form Trypanosoma brucei; assay: Parasite assay: trypanosome proliferation, 48 hours, Coulter Counter; format: cell-based, strain CA427; conditions: read-out: GI50 (concentration at which trypanosome proliferation was inhibited by 50%)
[5] = tested on: Trypanosomes; assay: Trypanosome viability after short term (6 hour) exposure and wash-out; format: cell-based, Trypanosoma brucei; conditions: for trypanosome proliferation/viability after removal of drug following 6 hour exposure: drug-free medium, monitored for 44 hours
Procedure: The effect of tideglusib on trypanosome viability after short term exposure was evaluated to determine if the molecule is cidal or cytostatic.
Fig 9 Trypanosome viability after short term exposure with tideglusib. Trypanosomes (5 x 10^5/mL in HMI-9 medium) were treated with pentamidine (or water solvent control) or tideglusib (5 μM, 10 μM, or DMSO solvent control) for 6 hours (37°C, 5% CO2) and then cultured in drug-free treatment as detailed in panel (A). Trypanosome densities were determined after 6 hour treatment (B), and the drugs washed from the cells by centrifugation and resuspension in fresh medium (to a density of 0.5 x 10^5/mL). Trypanosome proliferation in the fresh medium was monitored for 44 hours (37°C, 5% CO2) (C). Error between four separate cultures are shown.

[6] = tested on: human GSK3β; design: method as in PMID 22102280; conditions: following preincubation; read-out: IC50 against human GSK3β; cited from earlier work
[7] = design: method as in PMID 19523516; conditions: mice; oral administration; cited from earlier work
[8] = cited from earlier work
[9] = substrate: CC(C)C[C@H](NC(=O)[C@H](CO)NC(=O)[C@@H]1CCCN1C(=O)[C@H](CO)NC(=O)[C@@H]1CCCN1C(=O)[C@@H]1CCCN1C(=O)[C@@H](NC(=O)[C@H](CO)NC(=O)[C@H](C)NC(=O)[C@@H]1CCCN1C(=O)[C@H](CCCNC(=N)N)NC(=O)[C@H](CCCNC(=N)N)NC(=O)[C@@H](N)CCCNC(=N)N)C(C)C)C(=O)N[C@@H](CO)C(=O)N[C@@H](CCCNC(=N)N)C(=O)N[C@@H](Cc1c[nH]cn1)C(=O)N[C@@H](CO)C(=O)N[C@@H](COP(=O)(O)O)C(=O)N[C@@H](Cc1c[nH]cn1)C(=O)N[C@@H](CCC(N)=O)C(=O)N[C@@H](CCCNC(=N)N)C(=O)N[C@@H](CCCNC(=N)N)C(=O)O; assay: purified protein, by the assay type; format: biochemical; conditions: other: substrate versus rate plots (Fig 2); pH 7.4
[10] = IC50, 10 μM ATP and 10 μM GSM, ± standard deviation, n = 3
[11] = 10 μM ATP and 10 μM GSM, ± standard deviation, n = 3, read-out: IC50
[12] = IC50 for inhibition TbGSK3β, non-preincubated reactions, 0 min preincubation, 10 μM GSM, 10 μM ATP, kinase 10 nM
[13] = IC50 for inhibition TbGSK3β, preincubated reactions, 30 min preincubation with inhibitor, TbGSK3β, GSM, 10 μM GSM, 10 μM ATP, kinase 10 nM

## Nc1ncnc2c1ncn2[C@@H]1O[C@H](COP(=O)(O)OP(=O)(O)OP(=O)(O)O)[C@@H](O)[C@H]1O [ATP]
[1]; substrate versus rate plots (Fig 2)
  Km: 21 µM

## Cc1cc(Nc2nc(N[C@@H](C)c3ccc(F)cc3)c(C#N)cc2F)n[nH]1 [AZ960]
[1]; [10]
  IC50: 4100 ± 1270 nM

## Cc1c[nH]c(-c2cnc(NCCNc3ccc(C#N)cn3)nc2-c2ccc(Cl)cc2Cl)n1 [CT99021]
[1]; [11]
  IC50: 200 ± 80 nM
[1]
  Ratio Preinc/no preinc: 0.97

## O=C1Nc2ccc3ncsc3c2/C1=C/Nc1ccc(S(=O)(=O)Nc2ccccn2)cc1 [GW8510]
[1]; 10 μM ATP, irrespective of preincubation time, four point MMOA assay (Fig 4)
  percent inhibition of activity at lower ATP: 67%
[1]
  ATP competition following preincubation: competitive
  time dependence: effect of 30 min preincubation on TbGSK3β activity: no effect
[1]; no preincubation
  ATP competition without preincubation: competed with ATP
[1]; 100 μM ATP, irrespective of preincubation time, four point MMOA assay (Fig 4)
  percent inhibition of activity at higher ATP: 28%
[1]; [12]
  IC50: 15.1 nM
[1]; [13]
  IC50: 14.5 nM
[2]
  enzyme activity following 100-fold dilution (reversibility): enzyme activity was recovered
[3]; 48 hr, read-out: EC50 in parasite growth assay
  EC50: 119 nM
[3]; read-out: cellular activity against T. brucei
  EC50: 120 nM

## Cc1cc(Nc2cc(CN3CCOCC3)c3nc(C)c(Cc4ccc(Cl)cc4F)n3n2)n[nH]1 [LY278544]
[1]; [11]
  IC50: 500 ± 120 nM
[1]
  Ratio Preinc/no preinc: 0.83

## Nc1cccc(-c2cc3c(Oc4cccc(O)c4)ncnc3[nH]2)c1 [TWS119]
[1]; [11]
  IC50: 600 ± 140 nM
[1]
  Ratio Preinc/no preinc: 1

## O=c1sn(-c2cccc3ccccc23)c(=O)n1Cc1ccccc1 [Tideglusib]
[1]
  ATP competition following preincubation: non-competitive behavior
  time dependence: effect of 30 min preincubation on TbGSK3β activity: decreased the enzyme activity following preincubation
[1]; no preincubation
  ATP competition without preincubation: competed with ATP
[1]; 80 μM versus 10 μM GSM, 10 μM ATP, tideglusib 0.06 μM (S1 Fig)
  shift in activity at higher concentration of peptide substrate GSM: […]
[1]; [10]
  IC50: […]
[1]; [12]
  IC50: […]
[1]; [13]
  IC50: 43 nM
[1]; no preincubation, 100 μM ATP, 80 μM GSM, 5-60 min
  progress curves: percent inhibition / rate of product formation with time: […]
[2]
  enzyme activity following 100-fold dilution (reversibility): […]
[4]
  GI50: 2300 nM
[5]; 10 μM, 5 x 10^5/mL
  trypanosome proliferation during 6 hour treatment: […]
[5]; 5 or 10 μM, high trypanosome density 5 x 10^5/mL
  trypanosome growth during 6 hour treatment: markedly slowed trypanosome growth
[5]; after the initial lag in recovered growth
  growth rate after recovery from exposure: […]
[5]
  trypanosome proliferation/viability after removal of drug following 6 hour exposure: […]
[5]; high trypanosome cell densities
  cidal or cytostatic: cytostatic
[6]
  IC50: […]
[7]
  Blood levels (molar): ~6.7 µM
[8]; Alzheimer's disease and progressive supranuclear palsy
  tolerability in phase II studies: well-tolerated
[8]; escalating doses of up to 1000 mg/day, 30 Alzheimer's patients, 6 weeks
  tolerability in clinical trial: generally well tolerated

## N=C(N)c1ccc(OCCCCCOc2ccc(C(=N)N)cc2)cc1 [pentamidine]
[5]
  trypanosome proliferation/viability after removal of drug following 6 hour exposure: killed all observed trypanosomes

B1: TbGSK3β (Trypanosoma brucei brucei TREU927) (protein)
chain: MSLNLTDAADDRSYKEMEKYTVERVAGQGTFGTVQLARDKSTGSLVAIKKVIQDPRFKNRELQIMQHLARLRHPNIVMLKNYFYTVGGEGRRNDVYLNVVMEFVPETLHRTCRNYYRRMTNPPLILVKVFMFQLLRSIACLHIPVINICHRDIKPHNVLVDEQTGELKLCDFGSAKRLAADEPNVAYICSRYYRAPELIFGNQFYTTAVDIWSVGCIFAEMLLGEPIFCGENTSGQLREIVKILGKPTKEELHKLNGSSTEINANAKATPWENVFKQPLPAEVYDLCGKIFKYVPDQRITPLDALCHPFFNELREPTTKLPSGNPLPAHLYQFTPDEVEAMTEAQREYLLKK
notes: Full-length TbGSK3β (Gene DB ID Tb927.10.13780); 6X His (C); made in house; host or cells: BL21 (DE3) E. coli
[9]
  Km: 23 µM
